Broadly, the IC50 is the concentration needed to halve the response being measured. A low value points to inhibition by little substance. The term solubility denotes the concentration that dissolves in the medium under given conditions. Read a high solubility as a readily soluble substance. For orientation: half-life means how long it takes for the measured level to halve. A high value points to slow decline. For orientation: AUC means the area under the concentration-time curve, a measure of exposure. By bioavailability is commonly meant the share of a dose that reaches the circulation, judged against a reference dose that is usually intravenous. Higher therefore signals good availability. For orientation: Cmax means the highest concentration seen after dosing. One may read the clearance as the rate of elimination divided by the concentration. High values mean efficient removal, low ones inefficient removal.

This is an account of results in ChEMBL document CHEMBL1140014, “Synthesis and evaluation of pyrazolo[3,4-b]pyridine CDK1 inhibitors as anti-tumor agents” (Bioorg Med Chem Lett, 2007).

One series deals with A-375. The series is described as follows: cells. The following applies: Homo sapiens.
Series [1] in a line: Inhibition of Aurora2. Details: species or system Homo sapiens.
The target of series [2] is Vascular endothelial growth factor receptor 2 (Homo sapiens, UniProt P35968). Put plainly: Inhibition of VEGFR2.
Vascular endothelial growth factor receptor 2, sequence (P35968 whole entry): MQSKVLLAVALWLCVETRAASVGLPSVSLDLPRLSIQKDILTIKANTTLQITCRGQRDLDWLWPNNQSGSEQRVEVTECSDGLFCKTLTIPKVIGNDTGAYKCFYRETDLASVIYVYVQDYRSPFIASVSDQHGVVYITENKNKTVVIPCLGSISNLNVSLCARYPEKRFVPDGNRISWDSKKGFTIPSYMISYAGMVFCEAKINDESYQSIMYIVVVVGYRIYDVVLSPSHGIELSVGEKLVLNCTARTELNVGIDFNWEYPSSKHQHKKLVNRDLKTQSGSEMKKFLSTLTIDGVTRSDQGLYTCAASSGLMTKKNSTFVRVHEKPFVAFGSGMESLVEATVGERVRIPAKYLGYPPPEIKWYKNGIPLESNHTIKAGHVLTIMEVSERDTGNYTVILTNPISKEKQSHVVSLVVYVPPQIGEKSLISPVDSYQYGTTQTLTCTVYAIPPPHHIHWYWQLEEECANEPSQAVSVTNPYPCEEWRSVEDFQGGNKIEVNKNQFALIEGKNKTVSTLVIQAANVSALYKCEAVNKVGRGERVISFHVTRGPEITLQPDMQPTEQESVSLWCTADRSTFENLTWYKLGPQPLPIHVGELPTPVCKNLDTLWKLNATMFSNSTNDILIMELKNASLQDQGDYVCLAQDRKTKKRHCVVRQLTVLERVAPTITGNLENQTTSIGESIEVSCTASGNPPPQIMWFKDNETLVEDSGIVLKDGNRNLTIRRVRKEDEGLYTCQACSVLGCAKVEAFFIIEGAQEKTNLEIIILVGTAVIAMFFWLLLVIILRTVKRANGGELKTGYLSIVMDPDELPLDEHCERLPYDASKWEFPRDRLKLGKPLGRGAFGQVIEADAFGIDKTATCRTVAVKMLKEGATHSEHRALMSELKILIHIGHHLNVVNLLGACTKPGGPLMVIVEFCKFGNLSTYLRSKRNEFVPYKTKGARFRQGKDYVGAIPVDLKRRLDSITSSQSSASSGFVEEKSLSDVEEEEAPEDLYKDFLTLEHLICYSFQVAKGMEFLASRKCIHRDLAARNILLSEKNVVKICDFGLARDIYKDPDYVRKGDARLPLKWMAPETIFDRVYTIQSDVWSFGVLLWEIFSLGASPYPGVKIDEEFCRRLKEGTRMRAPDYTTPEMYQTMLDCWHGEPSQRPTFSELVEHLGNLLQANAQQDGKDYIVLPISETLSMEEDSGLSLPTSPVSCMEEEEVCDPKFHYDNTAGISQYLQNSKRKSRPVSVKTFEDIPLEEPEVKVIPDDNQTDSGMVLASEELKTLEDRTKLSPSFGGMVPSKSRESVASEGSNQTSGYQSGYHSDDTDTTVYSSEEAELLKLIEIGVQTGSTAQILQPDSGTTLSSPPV
In a further series the test system is HeLa. The series is described as follows: cells. To be noted: Homo sapiens.
In another series the test system is HCT-116. The series is described as follows: cells. The following applies: Homo sapiens.
The nature of series [3]: Solubility in 20% hydroxyl propyl beta-cyclodextrin. To be noted: 20% hydroxypropyl beta-cyclodextrin solution. It is filed as physicochemical.
A short description of series [4]: Half life in rat at 2 mg/kg, iv. It is filed as ADME, organism-based. Details: dose 2 mg/kg, route intravenous. The following applies: in vivo.
Series [5] in a line: Half life in rat at 10 mg/kg, po. The following applies: in vivo. Details: dose 10 mg/kg, route oral. It is filed as ADME, organism-based.
A further series deals with Rattus norvegicus. Put plainly: (§1) AUC in rat at 2 mg/kg, iv. It is filed as ADME, organism-based, Plasma. Details: dose 2 mg/kg, route intravenous. The following applies: in vivo.
Series [6] can be described thus: Oral bioavailability in rat at 10 mg/kg. It is filed as ADME, organism-based. To be noted: in vivo.
A short description of series [7]: Cmax in rat at 2 mg/kg, iv. It is filed as ADME, organism-based. Details: dose 2 mg/kg, route intravenous. The following applies: in vivo.
Series [8] is described as follows: Cmax in rat at 10 mg/kg, po. It is filed as ADME, organism-based. Details: dose 10 mg/kg, route oral. The following applies: in vivo.
The nature of series [9]: AUC in rat at 10 mg/kg, po. Details: dose 10 mg/kg, route oral. It is filed as ADME, organism-based. To be noted: plasma.
Series [10] has as its target Receptor tyrosine-protein kinase erbB-2 (Homo sapiens, UniProt P04626). The series is described as follows: Inhibition of HER2.
The target in series [11] is Proto-oncogene tyrosine-protein kinase receptor Ret (Homo sapiens, UniProt P07949). The series is described as follows: Inhibition of RET.
Proto-oncogene tyrosine-protein kinase receptor Ret, sequence (P07949 whole entry): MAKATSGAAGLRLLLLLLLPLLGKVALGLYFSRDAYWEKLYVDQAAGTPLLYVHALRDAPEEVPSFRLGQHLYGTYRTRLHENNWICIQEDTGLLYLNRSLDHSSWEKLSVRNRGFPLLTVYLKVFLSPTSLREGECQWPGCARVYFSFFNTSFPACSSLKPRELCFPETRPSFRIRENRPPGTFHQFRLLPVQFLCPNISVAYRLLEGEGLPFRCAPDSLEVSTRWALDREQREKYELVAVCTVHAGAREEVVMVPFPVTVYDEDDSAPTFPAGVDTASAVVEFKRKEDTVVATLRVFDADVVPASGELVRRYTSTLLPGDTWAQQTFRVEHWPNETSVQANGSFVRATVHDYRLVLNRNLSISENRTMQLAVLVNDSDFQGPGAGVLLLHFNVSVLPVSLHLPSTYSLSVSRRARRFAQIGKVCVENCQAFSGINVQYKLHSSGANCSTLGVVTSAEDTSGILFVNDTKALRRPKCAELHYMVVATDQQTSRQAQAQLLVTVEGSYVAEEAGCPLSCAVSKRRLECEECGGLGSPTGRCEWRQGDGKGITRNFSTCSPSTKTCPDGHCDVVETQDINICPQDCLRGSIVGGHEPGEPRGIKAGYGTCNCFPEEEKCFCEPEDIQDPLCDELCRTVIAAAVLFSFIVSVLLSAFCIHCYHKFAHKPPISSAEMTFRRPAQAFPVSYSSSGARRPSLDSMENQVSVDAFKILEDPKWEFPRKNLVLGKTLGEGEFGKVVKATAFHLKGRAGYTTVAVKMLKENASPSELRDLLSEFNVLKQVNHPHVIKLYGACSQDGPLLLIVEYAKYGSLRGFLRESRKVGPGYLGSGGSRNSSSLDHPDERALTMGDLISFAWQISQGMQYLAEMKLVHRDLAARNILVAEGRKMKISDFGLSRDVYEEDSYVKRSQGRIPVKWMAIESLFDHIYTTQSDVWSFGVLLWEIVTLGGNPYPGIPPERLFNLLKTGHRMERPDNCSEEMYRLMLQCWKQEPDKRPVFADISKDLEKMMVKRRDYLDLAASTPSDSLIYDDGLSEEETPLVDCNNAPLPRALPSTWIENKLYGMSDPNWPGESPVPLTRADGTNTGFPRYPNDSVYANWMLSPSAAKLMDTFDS
Series [12] addresses Cyclin-dependent kinase 1 (Homo sapiens, UniProt P06493). The series is described as follows: Inhibition of CDK1.
Series [13] can be described thus: as §1. It is filed as ADME, organism-based, Plasma. Details: dose 2 mg/kg, route intravenous. The following applies: plasma.
The nature of series [14]: Clearance in rat at 2 mg/kg, iv. It is filed as ADME, organism-based. Details: dose 2 mg/kg, route intravenous. The following applies: in vivo.

The structures appear in SMILES notation. ≈ marks a conversion by molar mass, not a printed value.

Receptor tyrosine-protein kinase erbB-2, sequence (P04626 whole entry): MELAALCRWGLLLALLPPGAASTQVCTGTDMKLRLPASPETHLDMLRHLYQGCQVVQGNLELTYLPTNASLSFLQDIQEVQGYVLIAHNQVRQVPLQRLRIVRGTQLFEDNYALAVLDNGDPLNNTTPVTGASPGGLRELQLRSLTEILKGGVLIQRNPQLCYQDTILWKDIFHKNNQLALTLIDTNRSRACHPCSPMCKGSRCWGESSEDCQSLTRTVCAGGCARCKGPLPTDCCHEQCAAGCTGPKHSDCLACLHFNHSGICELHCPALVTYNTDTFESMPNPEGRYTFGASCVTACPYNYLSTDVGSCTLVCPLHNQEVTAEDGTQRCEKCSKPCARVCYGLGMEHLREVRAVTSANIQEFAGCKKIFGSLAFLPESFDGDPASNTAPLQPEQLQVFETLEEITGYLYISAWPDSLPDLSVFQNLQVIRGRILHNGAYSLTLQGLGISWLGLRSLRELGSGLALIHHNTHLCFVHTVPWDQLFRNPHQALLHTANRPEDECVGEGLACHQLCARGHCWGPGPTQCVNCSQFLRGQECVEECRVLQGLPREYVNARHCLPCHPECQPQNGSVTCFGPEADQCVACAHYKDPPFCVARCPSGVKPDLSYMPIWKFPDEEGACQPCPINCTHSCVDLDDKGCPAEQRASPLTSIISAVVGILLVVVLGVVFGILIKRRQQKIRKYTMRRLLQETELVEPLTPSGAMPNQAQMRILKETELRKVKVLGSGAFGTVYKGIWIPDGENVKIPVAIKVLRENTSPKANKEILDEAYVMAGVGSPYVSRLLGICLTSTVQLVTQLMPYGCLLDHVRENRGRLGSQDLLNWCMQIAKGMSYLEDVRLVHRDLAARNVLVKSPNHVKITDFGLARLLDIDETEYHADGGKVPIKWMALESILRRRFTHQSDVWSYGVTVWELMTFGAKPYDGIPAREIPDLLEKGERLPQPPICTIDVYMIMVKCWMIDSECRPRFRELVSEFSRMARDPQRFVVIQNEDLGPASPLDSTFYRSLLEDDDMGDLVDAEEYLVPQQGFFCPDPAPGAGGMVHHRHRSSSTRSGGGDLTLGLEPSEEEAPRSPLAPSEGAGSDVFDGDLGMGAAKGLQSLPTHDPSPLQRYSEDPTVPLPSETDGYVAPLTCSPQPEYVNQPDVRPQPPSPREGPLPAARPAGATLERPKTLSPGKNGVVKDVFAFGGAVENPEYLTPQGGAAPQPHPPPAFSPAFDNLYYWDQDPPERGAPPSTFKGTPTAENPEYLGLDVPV
Cyclin-dependent kinase 1, sequence (P06493 whole entry): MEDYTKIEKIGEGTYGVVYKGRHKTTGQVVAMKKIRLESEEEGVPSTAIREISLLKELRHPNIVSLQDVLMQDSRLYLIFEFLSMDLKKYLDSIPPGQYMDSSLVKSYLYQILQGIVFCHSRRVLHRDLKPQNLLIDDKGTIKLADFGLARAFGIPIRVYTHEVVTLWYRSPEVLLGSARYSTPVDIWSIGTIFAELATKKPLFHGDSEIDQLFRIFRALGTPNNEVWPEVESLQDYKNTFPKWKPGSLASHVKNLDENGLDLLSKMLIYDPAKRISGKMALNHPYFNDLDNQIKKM

As to `CCNCc1cncc(-c2cnc3[nH]nc(-c4nc5cc(F)c(F)cc5[nH]4)c3c2)c1`, the IC50 in the series on A-375 is 46 nM; in series [1], > 1000 nM; in [2], 100 nM; in the series with HeLa, 140 nM; in the series on HCT-116 it was 95 nM. Moreover, the solubility in [3] is 12.5 mg/mL (≈ 30.8 mM).

Turning to `CCNCc1cncc(-c2cnc3n[nH]c(-c4nc5ccc(F)cc5[nH]4)c3c2)c1`, the results for the half-life in series [4] and in [5] were 16.1 h and 31.3 h, respectively. The IC50 in the series with A-375 stood at 51 nM; in [1], 800 nM; in [2] it was 150 nM; in the series with HeLa, 59 nM; in the series with HCT-116, 94 nM. Moreover, the AUC with Rattus norvegicus was determined as 372 ng·h/mL; in series [9] it was 150 ng·h/mL. Moreover, in series [6], the bioavailability is 8%. The compound further displayed a solubility in [3] of 12.5 mg/mL (≈ 32.3 mM). Also, the Cmax in [7] was determined as 217 ng/mL; in [8] it was 3.8 ng/mL.

As to `OCc1cccc2[nH]c(-c3n[nH]c4ncc(-c5cncc6ccccc56)cc34)nc12`, the IC50 in [1] is > 10000 nM; in series [2], > 100000 nM; in series [10], 240 nM; with HeLa, 1760 nM; in the series with HCT-116, 890 nM.

On to `COCc1cccc2[nH]c(-c3n[nH]c4ncc(-c5cncc6ccccc56)cc34)nc12`, for which the IC50 was 10 nM with A-375; 320 nM in series [1]; 460 nM in [2]; 15 nM with HeLa; 10 nM in the series with HCT-116.

As for `CC(C)OCc1cccc2[nH]c(-c3n[nH]c4ncc(-c5cncc6ccccc56)cc34)nc12`, the IC50 with A-375 is 910 nM; in [1], > 1000 nM; in series [2] it was 100 nM; with HeLa, 2140 nM; in the series on HCT-116, 2880 nM.

In the case of `COCc1cccc2[nH]c(-c3n[nH]c4ncc(-c5cnc6ccccc6c5)cc34)nc12`, the IC50 is 11 nM in the series with A-375; > 100000 nM in [1]; > 100000 nM in series [2]; > 100000 nM in series [10]; 1460 nM in the series with HeLa; > 100000 nM in series [11].

In the case of `COCc1cccc2[nH]c(-c3n[nH]c4ncc(-c5ccncc5)cc34)nc12`, the half-maximal inhibitory concentration (IC50) in the series with A-375 was 23 nM; in [1], > 1000 nM; in [2], 110 nM; in the series on HeLa, 3090 nM; with HCT-116 it was 62 nM.

On to `COCc1cccc2[nH]c(-c3n[nH]c4ncc(-c5cncnc5)cc34)nc12`, for which the 50% inhibitory concentration (IC50) in the series on A-375 was 160 nM; in [1] it was 10000 nM; in series [2] it was 110 nM; with HeLa it was 9910 nM; in the series with HCT-116, 330 nM.

Consider `CCN(CC)Cc1cccc2[nH]c(-c3n[nH]c4ncc(-c5cncc6ccccc56)cc34)nc12`, for which the IC50 in the series with A-375 is 47 nM; in series [12], 1.8 nM; in series [2], 1550 nM; in series [10] it was 89 nM; with HeLa, 29 nM; in the series on HCT-116, 31 nM.

With `CN1CCN(c2ccc3[nH]c(-c4n[nH]c5ncc(-c6cncc7ccccc67)cc45)nc3c2)CC1`, the half-life in [4] was 0.73 h; in series [5] it was 3.3 h. Moreover, the IC50 in the series with A-375 was 160 nM; in series [12] it was 14 nM; with HeLa, 450 nM; with HCT-116 it was 360 nM. Besides, the AUC was found to be 959 ng·h/mL in series [13] and 173 ng·h/mL in series [9]. The compound further displayed a bioavailability in series [6] of 4%. This compound also gave a clearance in [14] of 34.9 mL/min/kg. Moreover, the peak concentration (Cmax) in [7] came out at 1000 ng/mL; in series [8], 65 ng/mL.

As for `c1ccc2c(-c3cnc4[nH]nc(-c5nc6cc(N7CCOCC7)ccc6[nH]5)c4c3)cncc2c1`, the half-maximal inhibitory concentration (IC50) stood at 300 nM with A-375; 41 nM in [1]; 1070 nM in series [2]; 400 nM with HeLa; 370 nM in the series on HCT-116.

As for `O=C(O)c1cccc2[nH]c(-c3n[nH]c4ncc(-c5cncc6ccccc56)cc34)nc12`, the IC50 (in the series with A-375; in series [1]; in series [2]; in the series with HeLa; with HCT-116) was > 10000 nM each time.

On to `CC(C)NC(=O)c1cccc2[nH]c(-c3n[nH]c4ncc(-c5cncc6ccccc56)cc34)nc12`, for which the IC50 was 65 nM in the series with A-375; 39 nM in series [12]; > 100 nM in series [1]; 380 nM in [2]; 35 nM in the series on HeLa; 42 nM in the series with HCT-116.

With `COCc1cccc2[nH]c(-c3n[nH]c4ncc(-c5cncc(CN(C)C)c5)cc34)nc12`, the IC50 in the series with A-375 was determined as 330 nM; in [12] it was 120 nM; in series [1], 3750 nM; in [2], 1600 nM; in the series on HeLa, 1230 nM; in the series on HCT-116, 190 nM.

For `CCNCc1cncc(-c2cnc3[nH]nc(-c4nc5c(COC)cccc5[nH]4)c3c2)c1C`, the IC50 is 110 nM in series [12], 8020 nM in series [1] and 4670 nM in [2].

Consider `CCN(CC)C(=O)c1cccc2[nH]c(-c3n[nH]c4ncc(-c5cncc6ccccc56)cc34)nc12`, for which the IC50 in the series on A-375 is 71 nM; in [1], 1000 nM; in [2], 10000 nM; in series [10] it was > 10000 nM; with HeLa it was 170 nM; in the series on HCT-116, 55 nM.

Regarding `COCc1cccc2[nH]c(-c3nn(C)c4ncc(-c5cncc6ccccc56)cc34)nc12`, the half-inhibitory concentration (IC50) with A-375 was 260 nM; in series [12], 120 nM; in [1], 100000 nM; in [2], > 100000 nM; in the series with HeLa, 1170 nM; in the series with HCT-116, 200 nM.

On to `c1ccc2c(-c3cnc4[nH]nc(-c5nc6ccccc6[nH]5)c4c3)cncc2c1`, for which the IC50 in the series on A-375 stood at 870 nM; in series [12] it was 23 nM; in the series on HeLa, 1700 nM; with HCT-116 it was 550 nM.

As for `COC(=O)c1cccc2[nH]c(-c3n[nH]c4ncc(-c5cncc6ccccc56)cc34)nc12`, the IC50 in the series on A-375 worked out at 7380 nM; in series [12], 10000 nM; in series [2], 100000 nM; with HeLa, 10500 nM.

As to `CCCNCc1cncc(-c2cnc3[nH]nc(-c4nc5c(COC)cccc5[nH]4)c3c2)c1`, in series [1], the IC50 amounted to 3990 nM. Moreover, in [3], the solubility stood at 12.5 mg/mL (≈ 29.2 mM).

As for `CCNCc1cncc(-c2cnc3[nH]nc(-c4nc5cc(N6CCN(C)CC6)ccc5[nH]4)c3c2)c1`, the IC50 worked out at 630 nM in the series on A-375; 3 nM in series [12]; 280 nM in series [1]; 25 nM in series [2]; 470 nM in the series on HeLa; 540 nM in the series on HCT-116. Moreover, the solubility in series [3] was found to be 12.5 mg/mL (≈ 26.7 mM).

For the compound `CNCc1cncc(-c2cnc3[nH]nc(-c4nc5c(COC)cccc5[nH]4)c3c2)c1`, the IC50 in the series on A-375 is 270 nM; in series [12], 2.5 nM; in [1] it was > 1000 nM; in series [2], 640 nM; in the series on HeLa, 460 nM; in the series on HCT-116, 310 nM. This compound returned an IC50 in series [11] of 1000 nM.

Regarding `Cc1cccc2[nH]c(-c3n[nH]c4ncc(-c5cncc6ccccc56)cc34)nc12`, the IC50 with A-375 was determined as 1720 nM; in [2] it was 10000 nM; in series [10], 1000 nM; in the series with HeLa, 3090 nM; with HCT-116, 1640 nM.

For `COCc1cccc2[nH]c(-c3n[nH]c4ncc(-c5cccnc5)cc34)nc12`, the IC50 with A-375 was 33 nM; in [12], 29 nM; in series [1], > 1000 nM; in [2] it was 160 nM; in the series on HeLa it was 650 nM; with HCT-116 it was 19 nM.

Regarding `CNCc1cncc(-c2cnc3[nH]nc(-c4nc5cc(OC(F)(F)F)ccc5[nH]4)c3c2)c1`, the IC50 with A-375 was 47 nM; in [12], 9 nM; in series [1], 1000 nM; in [2] it was > 100 nM; with HCT-116 it was 55 nM. Further, the solubility in series [3] came to 12.5 mg/mL (≈ 28.4 mM).

As to `CC(C)NCc1cccc2[nH]c(-c3n[nH]c4ncc(-c5cncc6ccccc56)cc34)nc12`, the IC50 in the series with A-375 amounted to 140 nM; in series [12], 13 nM; in series [1], 3620 nM; in series [2] it was 1000 nM; in the series on HeLa it was 130 nM; in the series with HCT-116, 110 nM.

Regarding `CCNCc1cncc(-c2cnc3[nH]nc(-c4nc5cc(OC)ccc5[nH]4)c3c2)c1`, the IC50 with A-375 is 100 nM; in series [1], 360 nM; in series [2], > 100 nM; in the series on HeLa, 32 nM; in the series with HCT-116 it was 49 nM; in series [11], 1000 nM. In series [3], the solubility was found to be 12.5 mg/mL (≈ 31.3 mM).
